molecular target: T1, hNPY1R (Homo sapiens, UniProt P25929); test: NPY1R binding assay: SK-N-MC membranes, [125I]-Peptide YY (human) competition; details: data obtained after 60 minutes at 37° C.; SK-N-MC membranes; [125I]-Peptide YY 0.05 nM; read-out: hNPY1R binding Ki* †
T1 construct: SK-N-MC cells endogenously expressing the NPY1R receptor; endogenous in cells; host or cells: SK-N-MC cells (crude membrane fractions)
T1 sequence (P25929 1-384): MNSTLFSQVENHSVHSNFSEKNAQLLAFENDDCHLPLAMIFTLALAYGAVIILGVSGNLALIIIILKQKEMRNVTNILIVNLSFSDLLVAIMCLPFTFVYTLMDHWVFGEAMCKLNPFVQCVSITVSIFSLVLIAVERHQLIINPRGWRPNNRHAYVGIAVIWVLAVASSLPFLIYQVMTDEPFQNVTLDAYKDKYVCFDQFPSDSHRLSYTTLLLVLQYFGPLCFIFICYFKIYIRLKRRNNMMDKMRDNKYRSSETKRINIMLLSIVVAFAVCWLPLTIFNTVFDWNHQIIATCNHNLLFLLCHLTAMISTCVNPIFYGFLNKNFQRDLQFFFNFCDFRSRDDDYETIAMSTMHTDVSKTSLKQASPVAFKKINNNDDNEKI
Protocol: Crude membrane fractions are prepared from SK-N-MC cells endogenously expressing the NPY1R receptor. The cells are grown to 85-100% confluence on standard tissue culture dishes in Eagle's Minimum Essential Medium supplemented with 10% dialyzed FBS. To prepare membranes, cells are scraped and collected in 1× Dulbecco's phosphate buffered saline and then pelleted at 1000 RPM's. The cell pellet is reconstituted in membrane preparation buffer (20 mM HEPES, 6 mM MgCl2 and 1 mM EGTA, protease inhibitor tablets, pH 7.4) and placed in a cell disruption vessel at 1000 PSI for 30 minutes on ice. The pressurized contents are then released and spun down at 1000 RPMs and the supernatant is collected and further centrifuged at 15,000 RPMs to pellet the membranes. The membrane pellet is resuspended in membrane preparation buffer, snap frozen and stored at −80° C. for later use.
[…] Assay contents are then filtered through unifilter GF/C microplates and washed with 9×400 μl of cold wash buffer (25 mM HEPES, 5 mM MgCl2, 1 mM CaCl2), 500 mM NaCl, 0.1% Tween-20, pH 7.4). Assay plates are read using a Top Count NXT and Ki values for compounds are determined using a GraphPad Prism 6 non-linear regression analysis.

Row | Compound | Ki
1 | CCC(=O)NCCNC(=O)/N=C(/N)NCCC[C@@H](NC(=O)C(c1ccccc1)c1ccc(NCCCNc2c(NCCNC(=O)CN3CCN(CC(=O)O)CCN(CC(=O)O)CCN(CC(=O)O)CC3)c(=O)c2=O)cc1)C(=O)NCc1ccc(O)cc1 (single isomer, unassigned) [Compound 124A] | 10 to 100 nM
2 | CCC(=O)NCCNC(=O)/N=C(/N)NCCC[C@@H](NC(=O)C(c1ccccc1)c1cccc(OCCCCNc2c(NCCNC(=O)CN3CCN(CC(=O)O)CCN(CC(=O)O)CCN(CC(=O)O)CC3)c(=O)c2=O)c1)C(=O)NCc1ccc(O)cc1 (single isomer, unassigned) [Compound 111B] | < 10 nM
3 | CCC(=O)NCCNC(=O)/N=C(/N)NCCC[C@@H](NC(=O)C(c1ccccc1)c1cccc(OCCCCNC(=O)[C@H](CS(=O)(=O)O)NC(=O)CN2CCN(CC(=O)O)CCN(CC(=O)O)CCN(CC(=O)O)CC2)c1)C(=O)NCc1ccc(O)cc1 (single isomer, unassigned) [Compound 107B] | 10 to 100 nM
4 | CCC(=O)NCCNC(=O)/N=C(/N)NCCC[C@@H](NC(=O)C(c1ccccc1)c1cccc(OCCCCNC(=O)CCC(NC(=O)CN2CCN(CC(=O)O)CCN(CC(=O)O)CCN(CC(=O)O)CC2)C(=O)O)c1)C(=O)NCc1ccc(O)cc1 (single isomer, unassigned) [Compound 110A] | 10 to 100 nM
5 | CCC(=O)NCCNC(=O)/N=C(/N)NCCC[C@@H](NC(=O)C(c1ccccc1)c1cccc(OCCCCNC(=O)CN2CCN(C(=O)CN3CCN(CC(=O)O)CCN(CC(=O)O)CCN(CC(=O)O)CC3)CC2)c1)C(=O)NCc1ccc(O)cc1 (single isomer, unassigned) [Compound 118A] | < 10 nM

same assay, conditions: data obtained after 120 minutes at rt; SK-N-MC membranes; [125I]-Peptide YY; read-out: hNPY.R binding Ki* ††

Row | Compound | Ki
6 | CCC(=O)NCCNC(=O)/N=C(/N)NCCC[C@@H](NC(=O)C(c1ccccc1)c1cccc(OCCCCNc2c(NCCNC(=O)[C@@H](CCCCN)NC(=O)CN3CCN(CC(=O)O)CCN(CC(=O)O)CCN(CC(=O)O)CC3)c(=O)c2=O)c1)C(=O)NCc1ccc(O)cc1 (single isomer, unassigned) [Compound 116A] | < 10 nM
7 | CCC(=O)NCCNC(=O)/N=C(/N)NCCC[C@@H](NC(=O)C(c1ccccc1)c1ccc(NCCCNC(=O)NOCCNC(=O)CN2CCN(CC(=O)O)CCN(CC(=O)O)CCN(CC(=O)O)CC2)cc1)C(=O)NCc1ccc(O)cc1 (single isomer, unassigned) [Compound 160] | 10 to 100 nM
8 | CCC(=O)NCCNC(=O)/N=C(/N)NCCC[C@@H](NC(=O)C(c1ccccc1)c1cccc(OCCCCNC(=O)CN2CCN(C(=O)CN3CCN(CC(=O)O)CCN(CC(=O)O)CCN(CC(=O)O)CC3)CC2)c1)C(=O)NCc1ccc(O)cc1 (single isomer, unassigned) [Compound 118A] | < 10 nM

Now from value to compound:

Row | Ki | Compound
9 | 10 to 100 nM | CCC(=O)NCCNC(=O)/N=C(/N)NCCC[C@@H](NC(=O)C(c1ccccc1)c1cccc(OCCCCNC(=O)CCOCCOCCOCCOCCOCCOCCOCCOCCOCCOCCOCCOCCOCCOCCOCCOCCOCCOCCOCCOCCOCCOCCOCCOCCOCCOCCOCCOCCOCCOCCOCCOCCOCCOCCOCCOCCNC(=O)CN2CCN(CC(=O)O)CCN(CC(=O)O)CCN(CC(=O)O)CC2)c1)C(=O)NCc1ccc(O)cc1 (stereo partly drawn) [Compound 126]
10 | < 10 nM | CCC(=O)NCCNC(=O)/N=C(/N)NCCC[C@@H](NC(=O)C(c1ccccc1)c1ccc(NCCCNc2c(NCCNC(=O)CN3CCN(CC(=O)O)CCN(CC(=O)O)CCN(CC(=O)O)CC3)c(=O)c2=O)cc1)C(=O)NCc1ccc(O)cc1 (single isomer, unassigned) [Compound 124A]
11 | < 10 nM | CCC(=O)NCCNC(=O)/N=C(/N)NCCC[C@@H](NC(=O)C(c1ccccc1)c1cccc(OCCCCNC(=O)C[C@H]2NC(=O)[C@@H](CCCNC(=O)CN3CCN(CC(=O)O)CCN(CC(=O)O)CCN(CC(=O)O)CC3)NC2=O)c1)C(=O)NCc1c(F)cc(O)cc1F (single isomer, unassigned) [Compound 164A]
12 | < 10 nM | CCC(=O)NCCNC(=O)/N=C(/N)NCCC[C@@H](NC(=O)C(c1ccccc1)c1cccc(OCCCCNc2c(NCCNC(=O)[C@@H](CCCCN)NC(=O)CN3CCN(CC(=O)O)CCN(CC(=O)O)CCN(CC(=O)O)CC3)c(=O)c2=O)c1)C(=O)NCc1ccc(O)cc1 (stereo in doubt) [Compound 116B-In, indium (III) 2,2′,2″-(10-(2-((6-amino-1-((2-((2-((4-(3-((R,Z)-9-amino-4-((4-hydroxybenzyl)carbamoyl)-2,11,16-trioxo-1-phenyl-3,8,10,12,15-pentaazaoctadec-9-en-1-yl)phenoxy)butyl)amino)-3,4-dioxocyclobut-1-en-1-yl)amino)ethyl)amino)-1-oxohexan-2-yl)amino)-2-oxoethyl)-1,4,7,10-tetraazacyclododecane-1,4,7-triyl)triacetate]

Reference: patent publication US20240226343A1, “NEUROPEPTIDE Y1 RECEPTOR (NPY1R) TARGETED THERAPEUTICS AND USES THEREOF” (RADIONETICS ONCOLOGY, INC., priority 2022, published 2024)
